Data: PubChem BioAssay (NCI)
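Dose response: 5 concentrations. Exposure: 48 h. Format: 96-well plates. Endpoint: linear interpolation; highest concentration if not reached. TGI: total growth inhibition.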

What was measured:
Experiment in all cases: NCI anticancer screen, dose series, 48 h
[1] = test system: SNB-75 CNS
[2] = test system: HCT-15 colon
[3] = test system: HOP-62 NSCLC
[4] = test system: NCI-H226 lung
[5] = test system: OVCAR-5 ovarian
[6] = test system: SK-MEL-28 melanoma
[7] = test system: SNB-19 CNS
[8] = test system: NCI-H522 lung
[9] = test system: SF-539 CNS
[10] = test system: SK-OV-3 ovarian
[11] = test system: HL-60(TB) leukemia
[12] = test system: HCT-116 colon
[13] = test system: HT29 colon
[14] = test system: CCRF-CEM leukemia
[15] = test system: HOP-92 NSCLC
[16] = test system: MALME-3M melanoma
[17] = test system: SR leukemia
[18] = test system: 786-0 renal
[19] = test system: DMS 273 small cell lung
[20] = test system: RPMI-8226 leukemia
[21] = test system: EKVX NSCLC
[22] = test system: IGROV1 ovarian
[23] = test system: SF-295 CNS
[24] = test system: ACHN renal
[25] = test system: SNB-78 CNS
[26] = test system: CAKI-1 renal
[27] = test system: HCC-2998 colon
[28] = test system: NCI-H23 lung
[29] = test system: TK-10 renal
[30] = test system: M19-MEL melanoma
[31] = test system: K-562 leukemia
[32] = test system: DMS 114 small cell lung
[33] = test system: XF 498 CNS
[34] = test system: SN12C renal
[35] = test system: OVCAR-3 ovarian
[36] = test system: M14 melanoma
[37] = test system: SF-268 CNS
[38] = test system: SK-MEL-5 melanoma
[39] = test system: LOX IMVI melanoma
[40] = test system: UACC-62 melanoma
[41] = test system: OVCAR-4 ovarian
[42] = test system: U251 CNS
[43] = test system: SK-MEL-2 melanoma
[44] = test system: A498 renal
[45] = test system: OVCAR-8 ovarian
[46] = test system: KM12 colon
[47] = test system: KM20L2 colon
[48] = test system: DLD-1 colon
[49] = test system: A549 NSCLC
[50] = test system: COLO 205 colon
[51] = test system: UACC-257 melanoma
[52] = test system: SW-620 colon
[53] = test system: NCI-H460 lung
[54] = test system: HOP-18 NSCLC
[55] = test system: RXF 393 renal
[56] = test system: LXFL 529 NSCLC
[57] = test system: UO-31 renal
[58] = test system: MOLT-4 leukemia

SMILES: CC(=O)OCC(=O)[C@@]1(O)CC[C@H]2[C@@H]3CCC4=CC(=O)[C@H](C)C[C@]4(C)[C@H]3[C@@H](O)C[C@@]21C
- TGI [1]: > 100 µM
- TGI [2]: > 100 µM
- TGI [3]: > 100 µM
- TGI [4]: > 100 µM
- TGI [5]: > 100 µM
- TGI [6]: > 100 µM
- TGI [7]: > 100 µM
- TGI [8]: > 100 µM
- TGI [9]: > 100 µM
- TGI [10]: > 100 µM
- TGI [11]: > 100 µM
- TGI [12]: > 100 µM
- TGI [13]: > 100 µM
- TGI [14]: > 100 µM
- TGI [15]: > 100 µM
- TGI [16]: > 100 µM
- TGI [17]: > 100 µM
- TGI [18]: > 100 µM
- TGI [19]: > 100 µM
- TGI [20]: > 100 µM
- TGI [21]: > 100 µM
- TGI [22]: > 100 µM
- TGI [23]: > 100 µM
- TGI [24]: > 100 µM
- TGI [25]: > 100 µM
- TGI [26]: > 100 µM
- TGI [27]: > 100 µM
- TGI [28]: > 100 µM
- TGI [29]: > 100 µM
- TGI [30]: > 100 µM
- TGI [31]: > 100 µM
- TGI [32]: > 100 µM
- TGI [33]: > 100 µM
- TGI [34]: > 100 µM
- TGI [35]: > 100 µM
- TGI [36]: > 100 µM
- TGI [37]: > 100 µM
- TGI [38]: > 100 µM
- TGI [39]: > 100 µM
- TGI [40]: > 100 µM
- TGI [41]: > 100 µM
- TGI [42]: > 100 µM
- TGI [43]: > 100 µM
- TGI [44]: > 100 µM
- TGI [45]: > 100 µM
- TGI [46]: > 100 µM
- TGI [47]: > 100 µM
- TGI [48]: > 100 µM
- TGI [49]: > 100 µM
- TGI [50]: > 100 µM
- TGI [51]: > 100 µM
- TGI [52]: > 100 µM
- TGI [53]: > 100 µM
- TGI [54]: > 100 µM

SMILES: CN1CCc2c1nc(-c1ccccc1)c1c2N(C)CC1
- TGI [1]: > 100 µM
- TGI [2]: > 100 µM
- TGI [3]: > 100 µM
- TGI [5]: > 100 µM
- TGI [7]: > 100 µM
- TGI [55]: > 100 µM
- TGI [9]: > 100 µM
- TGI [10]: > 100 µM
- TGI [11]: > 100 µM
- TGI [12]: > 100 µM
- TGI [13]: > 100 µM
- TGI [14]: > 100 µM
- TGI [15]: 91 µM
- TGI [16]: > 100 µM
- TGI [18]: > 100 µM
- TGI [19]: > 100 µM
- TGI [56]: > 100 µM
- TGI [57]: 78.5 µM
- TGI [20]: > 100 µM
- TGI [21]: > 100 µM
- TGI [22]: > 100 µM
- TGI [23]: > 100 µM
- TGI [24]: > 100 µM
- TGI [25]: > 100 µM
- TGI [26]: > 100 µM
- TGI [27]: > 100 µM
- TGI [28]: > 100 µM
- TGI [29]: > 100 µM
- TGI [30]: > 100 µM
- TGI [31]: > 100 µM
- TGI [34]: > 100 µM
- TGI [35]: > 100 µM
- TGI [36]: > 100 µM
- TGI [37]: > 100 µM
- TGI [38]: > 100 µM
- TGI [39]: > 100 µM
- TGI [40]: > 100 µM
- TGI [41]: > 100 µM
- TGI [42]: > 100 µM
- TGI [43]: > 100 µM
- TGI [44]: > 100 µM
- TGI [45]: > 100 µM
- TGI [46]: > 100 µM
- TGI [47]: > 100 µM
- TGI [48]: > 100 µM
- TGI [49]: > 100 µM
- TGI [50]: > 100 µM
- TGI [51]: > 100 µM
- TGI [52]: > 100 µM
- TGI [53]: > 100 µM
- TGI [54]: 78.6 µM
- TGI [58]: > 100 µM
